The assay deals with T1, myeloperoxidase (MPO) (Homo sapiens, UniProt P05164).
T1 construct: isolated human MPO
Description: luminol luminescence assay of isolated human MPO with H2O2 and NaCl. It is filed as biochemical.

T1 sequence (P05164 165-273): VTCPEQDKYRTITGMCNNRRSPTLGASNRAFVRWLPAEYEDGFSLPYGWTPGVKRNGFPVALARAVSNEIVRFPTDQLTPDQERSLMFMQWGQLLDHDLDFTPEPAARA
T1 sequence (P05164 279-745): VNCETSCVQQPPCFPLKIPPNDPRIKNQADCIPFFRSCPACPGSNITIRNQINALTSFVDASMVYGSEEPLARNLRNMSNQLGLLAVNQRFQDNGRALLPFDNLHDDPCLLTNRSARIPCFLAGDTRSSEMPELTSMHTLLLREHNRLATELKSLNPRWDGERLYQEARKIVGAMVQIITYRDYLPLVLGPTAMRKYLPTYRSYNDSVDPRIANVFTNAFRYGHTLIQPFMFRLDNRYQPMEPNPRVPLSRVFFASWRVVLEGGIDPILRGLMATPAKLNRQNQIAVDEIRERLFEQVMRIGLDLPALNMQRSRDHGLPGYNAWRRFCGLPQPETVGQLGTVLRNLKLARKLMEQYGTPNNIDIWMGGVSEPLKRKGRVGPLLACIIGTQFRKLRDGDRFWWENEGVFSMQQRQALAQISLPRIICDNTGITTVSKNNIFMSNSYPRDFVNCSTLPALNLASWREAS

`CC(C)OCCn1c(=S)[nH]c(=O)c2[nH]ccc21` [AZD3241] displayed an IC50 of roughly 1200 nM.

For orientation: IC50 means the concentration that inhibits the measured activity by half. A higher IC50 goes with weaker potency.

These data come from PMC7522858, “The Synthetic Myeloperoxidase Inhibitor AZD3241 Ameliorates Dextran Sodium Sulfate Stimulated Experimental Colitis” (Frontiers in Pharmacology, 2020).
